Test results published in ChEMBL document CHEMBL1649540, “The novel CXCR4 antagonist KRH-3955 is an orally bioavailable and extremely potent inhibitor of human immunodeficiency virus type 1 infection: comparative studies with AMD3100” (Antimicrob Agents Chemother, 2009).
Activity calls are given as the source filed them. The calls are words filed in the database; no cut-off is given here.

Experiments:
[1] = tested on: Human immunodeficiency virus 1; assay: Antiviral activity against HIV1 89.6 infected in human PBMC assessed as inhibition of viral p24 antigen production after 7 to 10 days by ELISA; type: functional, organism-based; settings: Human immunodeficiency virus 1, 89.6
[2] = molecular target: C-C chemokine receptor type 5 (Homo sapiens) (UniProt P51681); assay: Displacement of [125I]RANTES form CCR5 expressed in CHO cells by scintillation counting; type: cell-based
[3] = tested on: C-X-C chemokine receptor type 4 (Homo sapiens), P61073 [E288A,L290A]; settings: HEK293
[4] = tested on: C-X-C chemokine receptor type 4 (Homo sapiens), P61073 [E275A]; assay: (§1) Inhibition of Mab 12G5 binding to CXCR4 E275A mutant expressed in HEK293 cells; type: cell-based
[5] = molecular target: C-X-C chemokine receptor type 4 (Homo sapiens, UniProt P61073, E275A); assay: as §1; type: cell-based
[6] = tested on: Human immunodeficiency virus 1; assay: Antiviral activity against HIV1 HXB2 infected in HEK293 cells assessed as inhibition of viral replication after 2 days; type: functional, organism-based; settings: Human immunodeficiency virus 1, HXB2, HEK293, 48 h
[7] = tested on: C-X-C chemokine receptor type 4 (Homo sapiens), P61073 [D262A]; settings: HEK293
[8] = molecular target: C-X-C chemokine receptor type 4 (Homo sapiens, UniProt P61073, H203A); assay: (§2) Inhibition of Mab 12G5 binding to CXCR4 H203A mutant expressed in HEK293 cells; type: cell-based
[9] = tested on: C-X-C chemokine receptor type 4 (Homo sapiens), P61073 [H203A]; assay: as §2; type: cell-based
[10] = tested on: Human immunodeficiency virus 1; assay: Antiviral activity against HIV1 X4 infected in human PBMC assessed as inhibition of viral p24 antigen production after 7 to 10 days by ELISA; type: functional, organism-based; settings: Human immunodeficiency virus 1, X4
[11] = molecular target: T1, C-X-C chemokine receptor type 4 (Homo sapiens, UniProt P61073); assay: Inhibition of Mab 12G5 binding to CXCR4 expressed in human MOLT4 cells by FACS analysis; type: cell-based; settings: MOLT-4
[12] = molecular target: C-X-C chemokine receptor type 4 (Homo sapiens, UniProt P61073, W283A)
[13] = molecular target: T1, C-X-C chemokine receptor type 4; assay: Displacement of [125I]SDF-1alpha form CXCR4 expressed in CHO cells by scintillation counting; type: cell-based
[14] = Clearance in Sprague-Dawley rat at 10 mg/kg, iv administered as single dose; type: ADME, organism-based; parameters: dose 10 mg/kg, route intravenous; settings: in vivo
[15] = molecular target: T1, C-X-C chemokine receptor type 4; assay: Displacement of [125I]SDF-1alpha form CXCR4 expressed in human MOLT4 cells by scintillation counting; type: cell-based; settings: MOLT-4
[16] = molecular target: C-X-C chemokine receptor type 4 (Homo sapiens, UniProt P61073, V99A); assay: (§3) Inhibition of Mab 12G5 binding to CXCR4 V99A mutant expressed in HEK293 cells; type: cell-based
[17] = tested on: C-X-C chemokine receptor type 4 (Homo sapiens), P61073 [V99A]; assay: as §3; type: cell-based
[18] = molecular target: T1, C-X-C chemokine receptor type 4; assay: Inhibition of Mab 12G5 binding to CXCR4 expressed in human MOLT4 cells at 10 nM by FACS analysis; type: cell-based; settings: MOLT-4
[19] = tested on: C-X-C chemokine receptor type 4 (Homo sapiens), P61073 [E277A]; settings: HEK293
[20] = molecular target: C-X-C chemokine receptor type 4 (Homo sapiens, UniProt P61073, E277A)
[21] = tested on: C-X-C chemokine receptor type 4 (Homo sapiens), P61073 [H281A]; assay: (§4) Inhibition of Mab 12G5 binding to CXCR4 H281A mutant expressed in HEK293 cells; type: cell-based
[22] = molecular target: C-X-C chemokine receptor type 4 (Homo sapiens, UniProt P61073, H281A); assay: as §4; type: cell-based
[23] = molecular target: C-X-C chemokine receptor type 4 (Homo sapiens, UniProt P61073, V112A); assay: (§5) Inhibition of Mab 12G5 binding to CXCR4 V112A mutant expressed in HEK293 cells; type: cell-based
[24] = tested on: C-X-C chemokine receptor type 4 (Homo sapiens), P61073 [V112A]; assay: as §5; type: cell-based
[25] = molecular target: T1, C-X-C chemokine receptor type 4; assay: Inhibition of Mab 44717 binding to CXCR4 expressed in human MOLT4 cells by FACS analysis; type: cell-based; settings: MOLT-4
[26] = molecular target: C-X-C chemokine receptor type 4 (Homo sapiens, UniProt P61073, D171A)
[27] = tested on: Human immunodeficiency virus 1; assay: Antiviral activity against HIV1 A018G infected in human PBMC assessed as inhibition of viral p24 antigen production after 7 to 10 days by ELISA; type: functional, organism-based; settings: Human immunodeficiency virus 1, A018G

T1 sequence (P61073 whole entry): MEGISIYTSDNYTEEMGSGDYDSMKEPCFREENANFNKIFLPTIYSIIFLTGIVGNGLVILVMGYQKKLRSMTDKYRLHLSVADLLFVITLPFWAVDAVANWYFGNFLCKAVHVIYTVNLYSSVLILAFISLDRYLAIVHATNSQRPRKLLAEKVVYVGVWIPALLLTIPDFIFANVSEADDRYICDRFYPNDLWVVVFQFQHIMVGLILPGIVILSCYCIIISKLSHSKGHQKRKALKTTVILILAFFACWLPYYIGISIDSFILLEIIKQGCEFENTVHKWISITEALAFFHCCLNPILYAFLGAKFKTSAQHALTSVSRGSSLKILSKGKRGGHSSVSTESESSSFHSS
Sequence of C-X-C chemokine receptor type 4 (Homo sapiens, UniProt P61073, D171A) (P61073 whole entry D171A): as the sequence (P61073 whole entry) above, with D171A counted along it
Sequence of C-X-C chemokine receptor type 4 (Homo sapiens), P61073 [E275A] (P61073 whole entry E275A): as the sequence (P61073 whole entry) above, with E275A counted along it
Sequence of C-X-C chemokine receptor type 4 (Homo sapiens, UniProt P61073, E275A) (P61073 whole entry E275A): as the sequence (P61073 whole entry) above, with E275A counted along it
Sequence of C-X-C chemokine receptor type 4 (Homo sapiens, UniProt P61073, W283A) (P61073 whole entry W283A): as the sequence (P61073 whole entry) above, with W283A counted along it
Sequence of C-X-C chemokine receptor type 4 (Homo sapiens), P61073 [E277A] (P61073 whole entry E277A): as the sequence (P61073 whole entry) above, with E277A counted along it
Sequence of C-X-C chemokine receptor type 4 (Homo sapiens, UniProt P61073, E277A) (P61073 whole entry E277A): as the sequence (P61073 whole entry) above, with E277A counted along it
Sequence of C-X-C chemokine receptor type 4 (Homo sapiens, UniProt P61073, V112A) (P61073 whole entry V112A): as the sequence (P61073 whole entry) above, with V112A counted along it
Sequence of C-X-C chemokine receptor type 4 (Homo sapiens), P61073 [V112A] (P61073 whole entry V112A): as the sequence (P61073 whole entry) above, with V112A counted along it
Sequence of C-C chemokine receptor type 5 (Homo sapiens) (P51681 whole entry, looked up): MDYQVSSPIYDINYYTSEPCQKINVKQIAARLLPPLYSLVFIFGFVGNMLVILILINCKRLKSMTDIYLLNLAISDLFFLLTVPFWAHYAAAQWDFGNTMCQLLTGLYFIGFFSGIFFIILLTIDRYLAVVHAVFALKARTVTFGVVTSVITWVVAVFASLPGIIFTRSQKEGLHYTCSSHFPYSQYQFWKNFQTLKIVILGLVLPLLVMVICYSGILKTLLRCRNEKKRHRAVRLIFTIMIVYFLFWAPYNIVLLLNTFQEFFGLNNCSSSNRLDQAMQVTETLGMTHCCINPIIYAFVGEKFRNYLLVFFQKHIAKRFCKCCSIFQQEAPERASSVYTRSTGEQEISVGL
Sequence of C-X-C chemokine receptor type 4 (Homo sapiens), P61073 [H203A] (P61073 whole entry H203A): as the sequence (P61073 whole entry) above, with H203A counted along it
Sequence of C-X-C chemokine receptor type 4 (Homo sapiens, UniProt P61073, H203A) (P61073 whole entry H203A): as the sequence (P61073 whole entry) above, with H203A counted along it
Sequence of C-X-C chemokine receptor type 4 (Homo sapiens), P61073 [E288A,L290A] (P61073 whole entry E288A/L290A): as the sequence (P61073 whole entry) above, with E288A, L290A counted along it
Sequence of C-X-C chemokine receptor type 4 (Homo sapiens), P61073 [V99A] (P61073 whole entry V99A): as the sequence (P61073 whole entry) above, with V99A counted along it
Sequence of C-X-C chemokine receptor type 4 (Homo sapiens, UniProt P61073, V99A) (P61073 whole entry V99A): as the sequence (P61073 whole entry) above, with V99A counted along it
Sequence of C-X-C chemokine receptor type 4 (Homo sapiens), P61073 [D262A] (P61073 whole entry D262A): as the sequence (P61073 whole entry) above, with D262A counted along it
Sequence of C-X-C chemokine receptor type 4 (Homo sapiens), P61073 [H281A] (P61073 whole entry H281A): as the sequence (P61073 whole entry) above, with H281A counted along it
Sequence of C-X-C chemokine receptor type 4 (Homo sapiens, UniProt P61073, H281A) (P61073 whole entry H281A): as the sequence (P61073 whole entry) above, with H281A counted along it

CCCN(CCC)CCCCN(C)Cc1ccc(CN(Cc2ncc[nH]2)Cc2nccn2C)cc1.O=C(O)C(O)C(O)C(=O)O
EC50 [1]: 0.38 nM | Activity [2]: inactive | IC90 [3]: 7.7 nM | IC90 [4]: 6.4 nM | IC50 [5]: 1 nM | IC50 [6]: 0.6 nM | IC90 [7]: 8.1 nM | IC50 [8]: 0.5 nM | IC90 [9]: 5.3 nM | EC50 [10]: 0.33 nM | inhibition [11]: Dose-dependent effect | IC50 [12]: 1.3 nM | Activity [13]: Dose-dependent effect | IC50 [13]: 0.61 nM | clearance [14]: 65 mL/min/kg | Activity [15]: Active | IC50 [16]: 1.5 nM | IC90 [17]: 7.4 nM | inhibition [18]: Active | IC90 [19]: 8.7 nM | IC50 [20]: 3.1 nM | IC90 [21]: 248 nM | IC50 [22]: 14.1 nM | IC50 [23]: 2.2 nM | IC90 [24]: > 10 nM | inhibition [25]: Dose-dependent effect | IC50 [26]: 3.2 nM | EC50 [27]: 1.3 nM
